What was measured:
A20 cells = assay: A20 mouse B-cell lymphoma animal model, tumor growth in Balb/c mice; assay type: in vivo
Description: The animal experiment was carried out in accordance with the requirements of AAALAC, and was approved by Bikai Animal Experiment Center IACUC to conduct. 6-8 week-old Balb/c mice (16-20 grams) were purchased from Beijing Weitong Lihua Experimental Animal Technology Co., Ltd. Each mouse was subcutaneously inoculated with 500,000 A20 cells, and inoculated on the right rear side of the back of the mouse. When the volume of the tumor grew to about 60mm^3, the mice were randomly assigned to the control group and the experimental group.
Mice were euthanized whnmorbidity or weightloss>20% was observed. Tumors were measured with a caliper twice weekly until final sacrifice. When a tumor size reached approximately 2000 mm^3 or there were animal health issues (20% area of a tumor ulcerated), the animals would be euthanized an date of death recorded. Solid tumor volumes were estimated from two dimensional tumor measurements and calculated according to the following equation:
Tumor volume (mm 3)=[length(mm)×width2 (mm 2)]/2
The percent median regression for a group at a given day was then obtained by taking the median of the individual percent regression calculated for each animal of the group at this day. The day of calculation was determined on the day when ΔT/ΔC (i.e., the ratio of medians of tumor volume changes from baseline between the treated and control groups)was calculated, except when median percent regression was not representative of the activity of the group. In that case, the day was determined on the first day when the median percent regression was maximal. Regressions were defined as partial (PR) if the tumor volume decreased to 50% of the tumor volume at the start of treatment. Complete regression (CR) was considered to have been achieved when tumor volume was below 14 mm^3 or could not be recorded. • RTV: Relative Tumor Volume. RTV=Vt/V0∘ Vt: Tumor volume at the end of an experimental period (treatment group). V0: tumor volume at the beginning of the experiment • TGI: Tumor Growth Inhibition value. TGI=[1−RTV(experimental group)/RTV(control group)]*100%
A two-way ANOVA type with factors treatment an day(repeated) was performed on tumor volume changes from baseline. In case of significant treatment day interaction or treatment effects, it was followed by a contrast analysis with Bonferroni-Holm correction for multiplicity to compare all treated groups to the control group at each day from day 8 to 27. Tumor volume changes from baseline were calculated for each animal and each day by subtracting the tumor volume on the day of first treatment from the tumor volume on the specified observation day. As heterogeneity of variances was observed between groups, the compound symmetric(CS) covariance structure with group=option was chosen for the ANOVA type model (SAS Institute Inc. (2008) SAS/STAT 9.2User′s Guide by CaryNC). All statistical analyses were performed using SAS version v9.2 software. A probability less than 5% (p<0.05).
6-8 weeks old balb/c mice (18-20 g) were purchased from Beijing Weitong Lihua Experimental Animal Technology Co., Ltd., and each mouse was subcutaneously inoculated with 500,000 A20 cells on the right rear side of the mouse's back. Treatment was initiated when tumors grew to a volume of approximately 62 mm^3. CN401 was orally administered at 150 mg/kg twice a day for 3 weeks.
CN202 was administered by intraperitoneal injection, 3 times a week at a dose of 5 mg/kg for 3 weeks. The control group was treated with vehicle (0.5% MC and PBS) without active product. Tumor size and body weight were measured three times a week. This animal experiment was carried out in accordance with the requirements of AAALAC, and was approved by Bikai Animal Experiment Center IACUC to conduct this animal experiment.
Referring to the experimental method of Example 1.1, the difference is that the dosage of CN202 is replaced by 15 mg/kg from 5 mg/kg. […]

[1] = test system: EMT-6 cells (mouse triple-negative breast cancer cells); assay type: in vivo; conditions: Example 4, CN401 150 mg/kg oral, twice a week × 4 week (Table 12)
Description: Tumors were measured with a caliper twice weekly until final sacrifice. […] Solid tumor volumes were estimated from two dimensional tumor measurements and calculated according to the following equation: […]

## Cc1nc(NC(=O)N2CCC[C@H]2C(N)=O)sc1-c1ccnc(C(C)(C)C(F)(F)F)c1 [Alpelisib, (2S)-1-N-[4-methyl-5-[2-(1,1,1-trifluoro-2-methylpropan-2-yl)pyridin-4-yl]-1,3-thiazol-2-yl]pyrrolidine-1,2-dicarboxamide, reference compound]
A20 cells; Example 2.2, Alpelisib 50 mg/kg p.o. qd × 3 weeks, day 21
  CR(Number of mice with tumor regression/total amount of mice in each group): 0/7
A20 cells; Example 2.2, Alpelisib 50 mg/kg p.o. qd × 3 weeks, day 21 vs vehicle control, p=0.161
  TGI %: 37%

## CC[C@H](Nc1ncnc2nc[nH]c12)c1oc2ccccc2c(=O)c1-c1cccc(F)c1 [CN401, (S)-2-(1-(9H-purin-6-ylamino)propylgroup)-3-(3-fluorophenyl)-4H-chromen-4-one]
[1]; 14th day vs vehicle control, p=0.87
  TGI %: 3%
[1]; observed up to 80 days
  CR(Number of mice with tumor regression/total amount of mice in each group): 0/8
A20 cells; Example 1.1, CN401 150 mg/kg p.o. bid × 3 weeks, day 22
  CR(Number of mice with tumor regression/total amount of mice in each group): 2/8
A20 cells; Example 1.1, CN401 150 mg/kg p.o. bid × 3 weeks, day 22 vs vehicle control, p=0.034
  TGI %: 55%
A20 cells; Example 1.2, CN401 150 mg/kg p.o. bid × 3 weeks, day 22
  CR(Number of mice with tumor regression/total amount of mice in each group): 2/8
A20 cells; Example 1.2, CN401 150 mg/kg p.o. bid × 3 weeks, day 22 vs vehicle control, p=0.034
  TGI %: 55%
A20 cells; Example 2.1, CN401 150 mg/kg p.o. bid × 3 weeks, day 22
  CR(Number of mice with tumor regression/total amount of mice in each group): 0/7
A20 cells; Example 2.1, CN401 150 mg/kg p.o. bid × 3 weeks, day 22 vs vehicle control, p=0.028
  TGI %: 45%
A20 cells; Example 3, CN401 150 mg/kg p.o. bid × 3 weeks, day 22
  CR(Number of mice with tumor regression/total amount of mice in each group): 2/8
A20 cells; Example 3, CN401 150 mg/kg p.o. bid × 3 weeks, day 22 vs vehicle control, p=0.034
  TGI %: 55%

## Anti-PD-L1 Ab: Anti-PD-L1 antibody (Atezolizumab), CAS Number: 1380723-44-3 [reference compound]
A20 cells; Example 3, anti-PD-L1 Ab (atezolizumab) 5 mg/kg i.p. biw × 3 weeks, day 22
  CR(Number of mice with tumor regression/total amount of mice in each group): 0/8
A20 cells; Example 3, anti-PD-L1 Ab (atezolizumab) 5 mg/kg i.p. biw × 3 weeks, day 22 vs vehicle control, p=0.57
  TGI %: 15%
